Assay results taken from PubChem BioAssay AID1919015 (Molecular Pharmacology Branch, DTP, NCI, 2023).

Tested on: OVCAR-5 complex spheroids with HUVEC/MSC, viability, % test/control
Test: Anticancer human tumor OVCAR-5 cell line growth inhibition [AhR];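 further: spheroids exposed to compounds for 7 days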;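 on viability, T/C: 100% = DMSO vehicle control wells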
Conditions: for IC50: curve of first compound; for viability, T/C: stronger effect = lower value
Procedure, shortened: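 Spheroids combined tumor cells with HUVEC endothelial cells and human MSCs as stroma. AhR antagonists were paired with standard or investigational drugs, each dosed in half-log steps down from near clinical Cmax, or from 10 microM where Cmax was unknown.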

[1] = second compound 0.1 µM, first compound 0.00949 µM
[2] = second compound 0.1 µM, first compound 0.03 µM
[3] = second compound 0.1 µM, first compound 0.0949 µM
[4] = second compound 0.1 µM, first compound 0.3 µM
[5] = second compound 0.316 µM, first compound 0.00949 µM
[6] = second compound 0.316 µM, first compound 0.03 µM
[7] = second compound 0.316 µM, first compound 0.0949 µM
[8] = second compound 0.316 µM, first compound 0.3 µM
[9] = second compound 1 µM, first compound 0.00949 µM
[10] = second compound 1 µM, first compound 0.03 µM
[11] = second compound 1 µM, first compound 0.0949 µM
[12] = second compound 1 µM, first compound 0.3 µM
[13] = second compound 3.16 µM, first compound 0.00949 µM
[14] = second compound 3.16 µM, first compound 0.03 µM
[15] = second compound 3.16 µM, first compound 0.0949 µM
[16] = second compound 3.16 µM, first compound 0.3 µM
[17] = second compound 10 µM, first compound 0.00949 µM
[18] = second compound 10 µM, first compound 0.03 µM
[19] = second compound 10 µM, first compound 0.0949 µM
[20] = second compound 10 µM, first compound 0.3 µM

SMILES: COc1ccc([C@@H](O)c2cc(-c3ncnc4cc(N5CCOCC5)ccc34)c(F)cc2Cl)nn1 + Cc1cncc(-c2nc(NCCc3c[nH]c4ccccc34)c3ncn(C(C)C)c3n2)c1
- IC50 (second compound 0.1 µM): 3230 nM
- IC50 (second compound 0.316 µM): 3560 nM
- IC50 (second compound 1 µM): 2740 nM
- IC50 (second compound 3.16 µM): 1660 nM
- IC50 (second compound 10 µM): < 31.6 nM
- viability, T/C (second compound 0.1 µM, first compound 0.0316 µM): 104%
- viability, T/C (second compound 0.1 µM, first compound 0.1 µM): 104%
- viability, T/C (second compound 0.1 µM, first compound 0.316 µM): 100%
- viability, T/C (second compound 0.1 µM, first compound 1 µM): 80.9%
- viability, T/C (second compound 0.1 µM, first compound 3.16 µM): 50.9%
- viability, T/C (second compound 0.1 µM, first compound 10 µM): 28.8%
- viability, T/C (second compound 0.316 µM, first compound 0.0316 µM): 104%
- viability, T/C (second compound 0.316 µM, first compound 0.1 µM): 103%
- viability, T/C (second compound 0.316 µM, first compound 0.316 µM): 94%
- viability, T/C (second compound 0.316 µM, first compound 1 µM): 80%
- viability, T/C (second compound 0.316 µM, first compound 3.16 µM): 52%
- viability, T/C (second compound 0.316 µM, first compound 10 µM): 29.1%
- viability, T/C (second compound 1 µM, first compound 0.0316 µM): 98.7%
- viability, T/C (second compound 1 µM, first compound 0.1 µM): 101%
- viability, T/C (second compound 1 µM, first compound 0.316 µM): 95%
- viability, T/C (second compound 1 µM, first compound 1 µM): 74.9%
- viability, T/C (second compound 1 µM, first compound 3.16 µM): 47.1%
- viability, T/C (second compound 1 µM, first compound 10 µM): 28.8%
- viability, T/C (second compound 3.16 µM, first compound 0.0316 µM): 83.5%
- viability, T/C (second compound 3.16 µM, first compound 0.1 µM): 83.3%
- viability, T/C (second compound 3.16 µM, first compound 0.316 µM): 79.8%
- viability, T/C (second compound 3.16 µM, first compound 1 µM): 59.9%
- viability, T/C (second compound 3.16 µM, first compound 3.16 µM): 36.5%
- viability, T/C (second compound 3.16 µM, first compound 10 µM): 20%
- viability, T/C (second compound 10 µM, first compound 0.0316 µM): 14.2%
- viability, T/C (second compound 10 µM, first compound 0.1 µM): 13.6%
- viability, T/C (second compound 10 µM, first compound 0.316 µM): 12.2%
- viability, T/C (second compound 10 µM, first compound 1 µM): 7.42%
- viability, T/C (second compound 10 µM, first compound 3.16 µM): 4.87%
- viability, T/C (second compound 10 µM, first compound 10 µM): 3.46%

SMILES: Nc1ncn(C2CC(O)C(CO)S2)c(=O)n1 (stereo not given) + Cc1cncc(-c2nc(NCCc3c[nH]c4ccccc34)c3ncn(C(C)C)c3n2)c1
- IC50 (second compound 0.1 µM): > 300 nM
- IC50 (second compound 0.316 µM): > 300 nM
- IC50 (second compound 1 µM): > 300 nM
- IC50 (second compound 3.16 µM): > 300 nM
- IC50 (second compound 10 µM): < 0.949 nM
- viability, T/C (second compound 0.1 µM, first compound 0.000949 µM): 99.8%
- viability, T/C (second compound 0.1 µM, first compound 0.003 µM): 101%
- viability, T/C [1]: 102%
- viability, T/C [2]: 98.4%
- viability, T/C [3]: 85.9%
- viability, T/C [4]: 80.6%
- viability, T/C (second compound 0.316 µM, first compound 0.000949 µM): 99.1%
- viability, T/C (second compound 0.316 µM, first compound 0.003 µM): 101%
- viability, T/C [5]: 96.8%
- viability, T/C [6]: 93.1%
- viability, T/C [7]: 85.5%
- viability, T/C [8]: 78.2%
- viability, T/C (second compound 1 µM, first compound 0.000949 µM): 87.8%
- viability, T/C (second compound 1 µM, first compound 0.003 µM): 88.7%
- viability, T/C [9]: 89.7%
- viability, T/C [10]: 79.7%
- viability, T/C [11]: 75.4%
- viability, T/C [12]: 70.9%
- viability, T/C (second compound 3.16 µM, first compound 0.000949 µM): 75.4%
- viability, T/C (second compound 3.16 µM, first compound 0.003 µM): 76.3%
- viability, T/C [13]: 75.5%
- viability, T/C [14]: 79.6%
- viability, T/C [15]: 63.2%
- viability, T/C [16]: 62.7%
- viability, T/C (second compound 10 µM, first compound 0.000949 µM): 18.3%
- viability, T/C (second compound 10 µM, first compound 0.003 µM): 17.9%
- viability, T/C [17]: 18%
- viability, T/C [18]: 15.2%
- viability, T/C [19]: 14.3%
- viability, T/C [20]: 15.1%

SMILES: O=C(C=Cn1cnc(-c2cc(C(F)(F)F)cc(C(F)(F)F)c2)n1)NNc1cnccn1 + Cc1cncc(-c2nc(NCCc3c[nH]c4ccccc34)c3ncn(C(C)C)c3n2)c1
- IC50 (second compound 0.1 µM): 2760 nM
- IC50 (second compound 0.316 µM): > 3000 nM
- IC50 (second compound 1 µM): 2430 nM
- IC50 (second compound 3.16 µM): 1450 nM
- IC50 (second compound 10 µM): < 9.49 nM
- viability, T/C [1]: 105%
- viability, T/C [2]: 108%
- viability, T/C [3]: 102%
- viability, T/C [4]: 87.4%
- viability, T/C (second compound 0.1 µM, first compound 0.949 µM): 67.7%
- viability, T/C (second compound 0.1 µM, first compound 3 µM): 48.4%
- viability, T/C [5]: 107%
- viability, T/C [6]: 109%
- viability, T/C [7]: 107%
- viability, T/C [8]: 86.4%
- viability, T/C (second compound 0.316 µM, first compound 0.949 µM): 68.9%
- viability, T/C (second compound 0.316 µM, first compound 3 µM): 49.8%
- viability, T/C [9]: 105%
- viability, T/C [10]: 108%
- viability, T/C [11]: 106%
- viability, T/C [12]: 89.4%
- viability, T/C (second compound 1 µM, first compound 0.949 µM): 71%
- viability, T/C (second compound 1 µM, first compound 3 µM): 45.3%
- viability, T/C [13]: 98.1%
- viability, T/C [14]: 99.5%
- viability, T/C [15]: 99.6%
- viability, T/C [16]: 79.8%
- viability, T/C (second compound 3.16 µM, first compound 0.949 µM): 62%
- viability, T/C (second compound 3.16 µM, first compound 3 µM): 31.8%
- viability, T/C [17]: 16.3%
- viability, T/C [18]: 15%
- viability, T/C [19]: 15.9%
- viability, T/C [20]: 16.4%
- viability, T/C (second compound 10 µM, first compound 0.949 µM): 13.3%
- viability, T/C (second compound 10 µM, first compound 3 µM): 12.6%
